In patent US20240293367A1, “METHODS OF TREATING DISORDERS WITH A […]” (Cybin IRL Limited, priority 2023, published 2024):
Several values for one entry are separate records, joined by “and”; a condition that tells them apart may be missing. Equal values may be shown once. Read-outs that look alike come from different tables or passages of the source.

Test: Phase I/IIa clinical PK of oral psilocin-d10, plasma, noncompartmental analysis (Cohorts 1-6)
Type: in vivo, human
Settings: for AUC(0-inf): read-out: AUC0-inf Mean (SD)
Protocol: Phase I/IIa, Randomized, Double-Blind, Placebo-Controlled Study which assesses the safety, tolerability, pharmacokinetics, and pharmacodynamics of multiple ascending oral doses of psilocin-d10 in participants with and without MDD (ClinicalTrials.gov Identifier: NCT05385783). All subjects receiving study medication in Cohorts 1-6 received oral psilocin-d10 powder in solution (0.1M citric acid+Tang orange drink, 30 mL dose in a dose cup) and subjects receiving placebo received a similar volume of Tang orange drink without the psilocin-d10 study drug. All subjects receiving study medication in the relative bioavailability (BA) cohort received powder-filled capsules containing psilocin-d10 benzenesulfonate salt by ingestion with approximately 240 mL room temperature water, or oral psilocin-d10 powder in solution (0.1M citric acid+Tang orange drink, 30 mL dose in a dose cup) in a cross-over design. Psilocin-d10 for the powder in solution dosage form was manufactured by Patheon Pharma Services, with an isotopic purity of 79.89%. Psilocin-d10 benzenesulfonate salt for the powder-filled capsule dosage form was manufactured by Patheon Pharma Services, with an isotopic purity of 85.20%.
Cohorts 1, 4, 5, and 6 of the study was comprised of participants with MDD. Cohorts 2, 3, and the relative BA cohort of the study were comprised of normal healthy volunteers (NHV). […] MDD participants had been on a stable dose of antidepressant medication for at least one month prior to screening with an inadequate response to that antidepressant medication as judged by the Investigator, and continued to receive their prescribed antidepressant throughout the course of the study.
Cohort 1. For Cohort 1, 2 sentinel subjects were randomized and dosed, including 1 subject who received a psilocin-d10 1 mg oral dose and 1 subject who received a placebo dose. After the sentinel subjects were dosed, an additional 2 subjects were dosed, including a replacement subject for one of the sentinel subjects who withdrew consent and one additional subject. In total, four Cohort 1 subjects received a first dose of study medication on Day 1, and 3 subjects received a second dose of study medication on Day 22. For the first dose, 2 subjects received an active psilocin-d10 1 mg dose and 2 subjects received placebo. For the second dose, 3 subjects received an active psilocin-d10 1 mg dose.
Cohort 2. For Cohort 2, 4 subjects were randomized and dosed on Day 1 (2 subjects on one day, 2 subjects on the next day), including 3 subjects who received a psilocin-d10 3 mg oral dose and 1 subject who received a placebo dose. These same 4 subjects were again dosed on Day 8 (2 subjects on one day, 2 subjects on the next day), with all 4 subjects receiving a psilocin-d10 8 mg oral dose (note the actual washout was 11 days between doses).
Cohort 3. For Cohort 3 Day 1, 4 subjects were randomized and dosed on Day 1 (2 subjects on one day, 2 subjects on the next day), including 3 subjects who received a psilocin-do 8 mg oral dose and 1 subject who received a placebo dose. […] Another subject was dosed and left the study after the 2-hour PK sampling and has limited PK samples available for analysis from 0 to 2 hours—this subject's PK data has thus been excluded from the analysis presented hereinafter. For Cohort 3 Day 8, 3 subjects were dosed on Day 8 with a psilocin-d10 10 mg dose (2 sentinel subjects were dosed on one day, 1 non-sentinel subject was dosed on the next day).
Cohorts 4 and 5. For Cohorts 4 and 5, 12 participants each (24 participants total) were randomized in a 3:1 ratio to receive 12 mg of psilocin-d10 or matched placebo in a single dosing session on Day 1. Following a 21-day interval, all participants received a dose of 12 mg psilocin-d10 on Day 22 (second dose for participants originally randomized to psilocin-d10, first dose for participants randomized to placebo), and were followed to Day 42.
Cohort 6. […]

## [2H]C([2H])([2H])N(C([2H])([2H])[2H])C([2H])([2H])C([2H])([2H])c1c[nH]c2cccc(O)c12 [psilocin-d10, 3-(2-(bis(methyl-d3)amino)ethyl-1,1,2,2-d4)-1H-indol-4-ol]
1 mg oral, Cohort 1 MDD, Day 1 and Day 22 pooled
  CL/F Mean (SD): 101.08 (18.94) L/h
3 mg oral, Cohort 2 NHV, Day 1
  CL/F Mean (SD): 85.22 (11.21) L/h
8 mg oral, Cohorts 2 and 3 NHV, Day 1 and Day 8 pooled, 2 subjects excluded
  Cmax Mean (SD): 15.00 (4.85) ng/ml and 15.00^3 ng/ml
8 mg oral, Cohorts 2 and 3 NHV, pooled
  CL/F Mean (SD): 97.56 (31.21) L/h
8 mg oral, Cohorts 2 and 3 NHV, pooled, 2 subjects excluded
  AUC0-24 Mean (SD): 83.98 (21.46) h*ng/mL and 83.98^3 h*ng/mL
10 mg oral, Cohort 3 NHV, Day 8
  CL/F Mean (SD): 104.7 (40.25) L/h
12 mg oral, Cohort 4 MDD, Day 1 and Day 22
  CL/F Mean (SD): 85.32 (35.41) L/h
12 mg oral, Cohort 5 MDD, Day 1 and Day 22
  CL/F Mean (SD): 91.95 (25.38) L/h
12 mg oral, Cohorts 4 and 5 MDD, Day 1 and Day 22
  CL/F Mean (SD): 88.72 (30.45) L/h
16 mg oral, Cohort 6 MDD, all subjects incl. 3 with emesis
  CL/F Mean (SD): 128.11 (83.50) L/h
16 mg, 18 doses, no emesis
  mean clearance (CL/F): ~107.2 L/h
16 mg, Cohort 6, N = 18, excluding 3 doses with vomiting postdose
  Observed Mean Cmax: 20.73^2 ng/mL
1.33-fold increase in dose
  fold increase in mean Cmax, 16 mg (18 doses, no emesis) compared to 12 mg: ~1.1 fold
1.5-fold increase in dose
  fold increase in mean AUC, 12 mg compared to 8 mg: 1.7 to 1.8 fold
  fold increase in mean Cmax, 12 mg compared to 8 mg: ~1.2 fold
2.67-fold increase in dose
  mean Cmax, fold higher, 8 mg dose compared to 3 mg dose: 2.45 fold
8-fold increase in dose
  mean AUC0-24, AUClast and AUC0-inf, fold higher, 8 mg compared to 1 mg: 8.1 to 8.3 fold
  mean Cmax, fold higher, 8 mg dose compared to 1 mg dose: 8.6 fold
human, plasma, oral
  fold increase in mean AUC, 16 mg (18 doses, no emesis) compared to 12 mg: ~1.1 fold
  mean AUC0-24, AUClast and AUC0-inf higher for 10 mg compared to 8 mg: ~20%
  mean AUC0-24, AUClast and AUC0-inf, fold higher, 3 mg compared to 1 mg: 3.4 to 3.5 fold
  mean Cmax lower for 10 mg dose cohort compared to 8 mg dose cohort: ~10%
  mean Cmax, fold higher, 3 mg dose compared to 1 mg dose: 3.5 fold
human, plasma, oral, 8 mg, Cohort 2, Day 8, N = 4, read-out: Observed Mean Cmax
  Cmax: 16.6 ng/mL
human, plasma, oral, 8 mg, range of means for 1, 3 and 8 mg doses, read-out: elimination half-life, on average
  half-life: 4.18 to 5.41 h
human, plasma, oral, 16 mg, 18 doses, no emesis, read-out: mean volume of distribution (Vz/F)
  Vd/F: ~834 L
human, plasma, oral, 16 mg, Cohort 6, N = 18, excluding 3 doses with vomiting postdose, read-out: Observed Mean AUC0-24
  AUC(0-t): 165 ng·h/mL
human, plasma, oral, 16 mg, Cohort 6, N = 18, excluding 3 doses with vomiting postdose, read-out: Observed Mean Cmax
  Cmax: 20.7 ng/mL
human, plasma, oral, 16 mg, as given in the text, read-out: mean elimination half-life (T1/2) (converted)
  half-life: 5.58 h
human, plasma, oral, range of means, 1 to 10 mg doses, read-out: apparent volume of distribution (Vz/F), on average
  Vd/F: 584 to 761 L
human, plasma, oral, 10 mg, Cohort 3 Day 8, read-out: plasma psilocin-d10 concentration of one subject at 2 hours postdose
  concentration at 2 h: 18.7 ng/mL
human, plasma, oral, 10 mg, Cohort 3 Day 8, set ~20% below the 2-hour value, read-out: estimated plasma psilocin-d10 concentration of one subject at 4 hours postdose (missed sample)
  concentration at 4 h: 14.9 ng/mL
human, plasma, po, 1 mg, 1 mg oral, Cohort 1 MDD, Day 1 and Day 22 pooled, read-out: AUC0-24 Mean (SD)
  AUC(0-t): 10 ng·h/mL
human, plasma, po, 1 mg, 1 mg oral, Cohort 1 MDD, Day 1 and Day 22 pooled
  AUC(0-inf): 10.2 ng·h/mL
human, plasma, po, 1 mg, 1 mg oral, Cohort 1 MDD, Day 1 and Day 22 pooled, read-out: AUClast Mean (SD)
  AUC(0-t): 10 ng·h/mL
human, plasma, po, 1 mg, 1 mg oral, Cohort 1 MDD, Day 1 and Day 22 pooled, read-out: Cmax Mean (SD)
  Cmax: 1.69 ng/mL
human, plasma, po, 1 mg, 1 mg oral, Cohort 1 MDD, Day 1 and Day 22 pooled, read-out: Cmax Median
  Cmax: 1.7 ng/mL
human, plasma, po, 1 mg, 1 mg oral, Cohort 1 MDD, Day 1 and Day 22 pooled, read-out: T1/2 Mean (SD) (converted)
  half-life: 4.18 h
human, plasma, po, 1 mg, 1 mg oral, Cohort 1 MDD, Day 1 and Day 22 pooled, read-out: Vz/F Mean (SD)
  Vd/F: 608 L
human, plasma, po, 3 mg, 3 mg oral, Cohort 2 NHV, Day 1, read-out: AUC0-24 Mean (SD)
  AUC(0-t): 34.5 ng·h/mL
human, plasma, po, 3 mg, 3 mg oral, Cohort 2 NHV, Day 1
  AUC(0-inf): 35.6 ng·h/mL
human, plasma, po, 3 mg, 3 mg oral, Cohort 2 NHV, Day 1, read-out: AUClast Mean (SD)
  AUC(0-t): 34.5 ng·h/mL
human, plasma, po, 3 mg, 3 mg oral, Cohort 2 NHV, Day 1, read-out: Cmax Mean (SD)
  Cmax: 5.91 ng/mL
human, plasma, po, 3 mg, 3 mg oral, Cohort 2 NHV, Day 1, read-out: Cmax Median
  Cmax: 5.87 ng/mL
human, plasma, po, 3 mg, 3 mg oral, Cohort 2 NHV, Day 1, read-out: T1/2 Mean (SD) (converted)
  half-life: 4.76 h
human, plasma, po, 3 mg, 3 mg oral, Cohort 2 NHV, Day 1, read-out: Vz/F Mean (SD)
  Vd/F: 584 L
human, plasma, po, 8 mg, 8 mg oral, Cohorts 2 and 3 NHV, Day 1 and Day 8 pooled, 2 subjects excluded, read-out: Cmax Mean (SD)
  Cmax: 15 ng/mL
